According to the supplement of paper PMC11208160:

Assay: recombinant UMI read abundance after kanamycin selection (control-corrected) (log10(CPM+1)); higher = more efficient recombination; extreme values may be limits of the assay; sequences stand for … in AGTGCAGAGAAAATCGGCCAGTTTTCTCTGCCTGCAGTCCGCATGCCGTGGGACCCCTTGGGTTCTAACCTGTTGCCTAGATTTATGCAGCGGACTGCCTTTCTCCCAAAGTGATAAACCGG…AGGTTGGTTTCACT; site = the 11-nt donor
Method in brief: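 The measure is log10(CPM+1) for recombinant UMIs. These were PCR-amplified across the donor–target junction and sequenced after Escherichia coli carrying a donor and donor-binding-loop pair library and a target plasmid with T7-inducible IS621 bridge recombinase was plated on IPTG (0.07 mM) plus kanamycin or unselected. CPM were averaged over two replicates and scaled by control-derived factors.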
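Also: IS621 bridge recombinase in Escherichia coli cells against a fixed T5 target plasmid.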

Row | Sequence | recombinant UMI read abundance (log10)
1 | CCTTCTACATGGACCGGTTTTCCCGGTAATCCGTATTTGAT (site CCTTCTACTAT) | 0
2 | CCTTGACCATGGACCGGTTTTCCCGGTAATCCGTATTTGAG (site CCTTGACCTCT) | 0.0135
3 | CCTTGAGCATGGACCGGTTTTCCCGGTAATCCGTATTTGTA (site CCTTGAGCTTA) | 0.013
4 | CCTTGCACATGGACCGGTTTTCCCGGTAATCCGTATTTGAG (site CCTTGCACTCT) | 0.0135
5 | CCTTGTGCATGGACCGGTTTTCCCGGTAATCCGTATTTGGA (site CCTTGTGCTTC) | 0.0149
6 | CCTTTACCATGGACCGGTTTTCCCGGTAATCCGTATTTGCC (site AGACCGTCTCT) | 0.00566
7 | CCTTTTACATGGACCGGTTTTCCCGGTAATCCGTATTTGCT (site CCATTTACTAG) | 0
8 | CCTTTTACATGGACCGGTTTTCCCGGTAATCCGTATTTGCT (site CCCTTTACTAG) | 0
9 | CCTTTTACATGGACCGGTTTTCCCGGTAATCCGTATTTGCT (site CCGTTTACTAG) | 0.00369
10 | CCTTTTACATGGACCGGTTTTCCCGGTAATCCGTATTTGCT (site CCTTTTACTAG) | 0
11 | CGAAATCCATGGACCGGTTTTCCCGGTAATCCGTATTTGCT (site CGAAATCCTAG) | 0.783
12 | CGAAATCCATGGACCGGTTTTCCCGGTAATCCGTATTTGCT (site CGGAATCCTAA) | 0
13 | CGAAATCCATGGACCGGTTTTCCCGGTAATCCGTATTTGTA (site CGAAATCCTTA) | 1.11
14 | CGAAATCCATGGACCGGTTTTCCCGGTAATCCGTATTTGTA (site CGGAATCCTAA) | 0.00383
15 | CGAAATCCATGGACCGGTTTTCCCGGTAATCCGTATTTGTT (site CGAAATCCTAA) | 0.953
16 | CGAAATCCATGGACCGGTTTTCCCGGTAATCCGTATTTGTT (site CGCAATCCTAA) | 0
17 | CGAAATCCATGGACCGGTTTTCCCGGTAATCCGTATTTGTT (site CGGAATCCTAA) | 0
18 | CGAAATCCATGGACCGGTTTTCCCGGTAATCCGTATTTGTT (site CGTAATCCTAA) | 0
19 | CGAAATTCATGGACCGGTTTTCCCGGTAATCCGTATTTGTT (site CGAAATTCTAA) | 0.945

Row | Sequence | recombinant UMI read abundance (log10)
20 | CGAAATTCATGGACCGGTTTTCCCGGTAATCCGTATTTGTT (site CGGAATCCTAA) | 0
21 | CGAACACCATGGACCGGTTTTCCCGGTAATCCGTATTTGCT (site CGAACACCTAG) | 0
22 | CGAACACCATGGACCGGTTTTCCCGGTAATCCGTATTTGCT (site CGATCATCTAG) | 0
23 | CGAACGTCATGGACCGGTTTTCCCGGTAATCCGTATTTGCT (site CGAACGTCTAG) | 2.87
24 | CGAACGTCATGGACCGGTTTTCCCGGTAATCCGTATTTGCT (site CGATCATCTAG) | 0
25 | CGAAGAGCATGGACCGGTTTTCCCGGTAATCCGTATTTGAC (site CGAAGAGCTGT) | 2.51
26 | CGAAGGGCATGGACCGGTTTTCCCGGTAATCCGTATTTGGT (site CGAAGGGCTAC) | 1.32
27 | CGAAGTACATGGACCGGTTTTCCCGGTAATCCGTATTTGCG (site CGAAGTACTCG) | 2.12
28 | CGAATACCATGGACCGGTTTTCCCGGTAATCCGTATTTGTA (site CGAATACCTTA) | 0
29 | CGAATATCATGGACCGGTTTTCCCGGTAATCCGTATTTGCG (site CGAATATCTCG) | 2.99
30 | CGAATCGCATGGACCGGTTTTCCCGGTAATCCGTATTTGAT (site CGAATCGCTAT) | 2.72
31 | CGAATGGCATGGACCGGTTTTCCCGGTAATCCGTATTTGCG (site GAGGGCACTAT) | 0.0326
32 | CGACCAACATGGACCGGTTTTCCCGGTAATCCGTATTTGCT (site CGACCAACTAG) | 2.28
33 | CGACCAACATGGACCGGTTTTCCCGGTAATCCGTATTTGCT (site CGATCATCTAG) | 0
34 | CGACCCGCATGGACCGGTTTTCCCGGTAATCCGTATTTGCG (site CGACCCGCTCG) | 0.0234
35 | CGACGACCATGGACCGGTTTTCCCGGTAATCCGTATTTGAA (site CGACGACCTTT) | 0.00772
36 | CGACGGTCATGGACCGGTTTTCCCGGTAATCCGTATTTGCC (site TATGCCGCTAT) | 0
37 | CGACTAACATGGACCGGTTTTCCCGGTAATCCGTATTTGGA (site CAACTAACTTC) | 1.44
